Results from patent US11225459B2, “Substituted bisphenylalkylurea compounds and methods” (TEXAS TECH UNIVERSITY SYSTEM, priority 2017, dated 2022).

Experiments:
[1] = system: HUVEC cells; test: Ca2+ release assay (HUVEC cells); assay type: cell-based; conditions: FIG. 7
Description: FIG. 7 depicts a graph showing Ca2+ release assay (HUVEC cells) of compound of the present disclosure designated as Formula I (AZ2-57).
Unlike many other DAT inhibitors on the market, our compound has very limited interaction with other GPCR receptors, reducing potential CNS-induced toxicity. It is thus an embodiment of the present disclosure to further show effect on microglia-induced immune response (chronic inflammation), dopamine surge in the presence of Formula I (AZ2-57).

[2] = target: H1 receptor (Homo sapiens, UniProt P35367); test: H1 R inhibition (Ki); assay type: binding; conditions: FIG. 5
H1 receptor, sequence (P35367 whole entry): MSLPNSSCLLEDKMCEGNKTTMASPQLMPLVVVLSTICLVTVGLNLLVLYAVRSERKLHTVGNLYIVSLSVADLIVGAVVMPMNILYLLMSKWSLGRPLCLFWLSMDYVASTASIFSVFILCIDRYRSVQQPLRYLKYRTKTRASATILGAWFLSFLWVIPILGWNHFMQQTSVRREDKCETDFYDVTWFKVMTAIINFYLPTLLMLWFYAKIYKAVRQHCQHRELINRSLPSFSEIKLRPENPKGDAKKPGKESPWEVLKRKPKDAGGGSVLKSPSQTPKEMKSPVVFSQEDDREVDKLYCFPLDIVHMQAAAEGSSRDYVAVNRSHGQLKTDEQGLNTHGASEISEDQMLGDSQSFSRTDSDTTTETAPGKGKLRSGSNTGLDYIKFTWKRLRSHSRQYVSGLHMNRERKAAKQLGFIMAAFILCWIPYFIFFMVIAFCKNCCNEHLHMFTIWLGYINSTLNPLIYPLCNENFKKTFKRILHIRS
Description: FIG. 5 depicts a graph showing H1 R inhibition (Ki) of compound of the present disclosure designated as Formula I (AZ2-57).

[3] = target: H2 receptor (Homo sapiens, UniProt P25021); test: H2 R inhibition (Ki); assay type: binding; conditions: FIG. 6
H2 receptor, sequence (P25021 whole entry): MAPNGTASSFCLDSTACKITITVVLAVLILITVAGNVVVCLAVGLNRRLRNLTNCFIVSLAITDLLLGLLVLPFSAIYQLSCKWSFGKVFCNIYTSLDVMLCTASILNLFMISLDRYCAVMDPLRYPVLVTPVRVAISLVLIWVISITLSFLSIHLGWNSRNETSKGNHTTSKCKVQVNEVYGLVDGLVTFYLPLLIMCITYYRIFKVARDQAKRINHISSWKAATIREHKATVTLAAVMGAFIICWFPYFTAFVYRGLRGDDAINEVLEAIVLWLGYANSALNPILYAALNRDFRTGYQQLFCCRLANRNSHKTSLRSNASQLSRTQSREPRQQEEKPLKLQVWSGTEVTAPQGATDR
Description: FIG. 6 depicts a graph showing H2 R inhibition (Ki) of compound of the present disclosure designated as Formula I (AZ2-57).

[4] = target: Dopamine Transporter (DAT) (Homo sapiens, UniProt Q01959); test: DAT inhibition (Ki), in vitro; assay type: binding; conditions: FIG. 4
Dopamine Transporter (DAT), sequence (Q01959 whole entry, species assumed): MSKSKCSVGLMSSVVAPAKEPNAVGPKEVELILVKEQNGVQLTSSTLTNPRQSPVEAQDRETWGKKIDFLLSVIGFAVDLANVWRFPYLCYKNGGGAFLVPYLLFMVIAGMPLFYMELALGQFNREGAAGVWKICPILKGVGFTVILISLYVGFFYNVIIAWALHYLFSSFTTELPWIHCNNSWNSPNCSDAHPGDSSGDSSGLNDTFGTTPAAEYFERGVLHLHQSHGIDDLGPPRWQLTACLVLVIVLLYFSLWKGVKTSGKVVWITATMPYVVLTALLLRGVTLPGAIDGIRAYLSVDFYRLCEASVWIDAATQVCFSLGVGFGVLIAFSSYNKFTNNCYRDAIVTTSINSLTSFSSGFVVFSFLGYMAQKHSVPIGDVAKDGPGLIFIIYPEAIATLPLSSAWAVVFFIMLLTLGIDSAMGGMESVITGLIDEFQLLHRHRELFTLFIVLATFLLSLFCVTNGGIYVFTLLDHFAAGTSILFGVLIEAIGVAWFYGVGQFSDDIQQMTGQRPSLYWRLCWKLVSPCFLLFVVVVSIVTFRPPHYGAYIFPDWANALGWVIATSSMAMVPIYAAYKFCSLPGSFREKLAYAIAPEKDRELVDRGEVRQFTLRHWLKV
Description: FIG. 4 depicts a graph showing DAT inhibition (Ki) of compound of the present disclosure designated Formula I (AZ2-57).
In one embodiment, compound of the present disclosure Formula I (AZ2-57) is shown in in vitro studies to show DAT inhibition (see FIG. 4).

Ki [2]: 32 nM | inhibition of H1 receptor [2]: 65.4% | Ki [3]: 1750 nM | inhibition of H2 receptor [3]: 54% | Ki [4]: 5.2 nM
SMILES: O=C(NCCCCC(c1ccc(F)cc1)c1ccc(F)cc1)Nc1ccc(Cl)cc1 [AZ2-57, 1-(5,5-bis(4-fluorophenyl)pentyl)-3-(4-chlorophenyl)urea]
Ca2+ release [1]: effectively manipulated
